Laboratory results as given in patent publication US7268152B2, “Glucocorticoid mimetics, methods of making them, pharmaceutical compositions, and uses thereof” (Boehringer Ingelheim Pharmaceuticals, Inc., priority 2002, dated 2007).
pIC50: −log10 of the molar value.

Target: T1, human glucocorticoid receptor (GR) complex (Homo sapiens, UniProt P04150)
T1 construct: made in house; host or cells: insect expression system (baculovirus lysate)
T1 sequence (P04150 1-777): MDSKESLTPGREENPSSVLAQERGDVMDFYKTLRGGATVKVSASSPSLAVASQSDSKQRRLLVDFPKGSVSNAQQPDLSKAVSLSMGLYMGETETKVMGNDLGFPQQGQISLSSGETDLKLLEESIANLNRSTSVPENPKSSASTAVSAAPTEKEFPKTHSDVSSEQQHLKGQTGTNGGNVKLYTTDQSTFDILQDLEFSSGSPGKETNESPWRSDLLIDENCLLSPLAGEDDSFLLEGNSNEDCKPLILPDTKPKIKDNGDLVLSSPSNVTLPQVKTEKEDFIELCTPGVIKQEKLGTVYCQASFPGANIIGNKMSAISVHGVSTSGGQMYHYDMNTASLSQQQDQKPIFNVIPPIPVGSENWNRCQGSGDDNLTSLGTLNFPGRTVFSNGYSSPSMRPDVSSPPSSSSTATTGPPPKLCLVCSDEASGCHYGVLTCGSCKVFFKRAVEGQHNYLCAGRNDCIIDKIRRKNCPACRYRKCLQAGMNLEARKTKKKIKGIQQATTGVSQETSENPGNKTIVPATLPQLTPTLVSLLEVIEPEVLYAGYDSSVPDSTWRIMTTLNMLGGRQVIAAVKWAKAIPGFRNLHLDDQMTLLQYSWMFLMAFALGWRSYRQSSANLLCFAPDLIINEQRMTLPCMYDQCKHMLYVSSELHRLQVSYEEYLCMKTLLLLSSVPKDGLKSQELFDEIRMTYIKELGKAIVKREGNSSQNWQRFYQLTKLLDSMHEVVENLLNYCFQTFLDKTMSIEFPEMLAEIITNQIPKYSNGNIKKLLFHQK
Assay: Glucocorticoid receptor competitive binding assay (fluorescence polarization)
Conditions: competition with TAMRA-labeled dexamethasone
Experimental: Compounds of the invention were evaluated for binding to the steroid receptor by a fluorescence polarization competitive binding assay. Detailed descriptions for preparation of recombinant glucocorticoid receptor (GR) complex used in the assay is described in U.S. provisional application No. 60/291,877, filed May 18, 2001, and incorporated herein by reference in its entirety. Preparation of the tetramethyl rhodamine (TAMRA)-labeled dexamethasone probe was accomplished using a standard literature procedure (M. Pons et al., J. Steroid Biochem., 1985, 22, pp. 267-273).
A. Glucocorticoid Receptor Competitive Binding Assay
Step 1. Characterization of the Fluorescent Probe
The wavelengths for maximum excitation and emission of the fluorescent probe should first be measured. An example of such a probe is rhodamine (TAMRA)-labeled dexamethasone.
The affinity of the probe for the steroid receptor was then determined in a titration experiment. The fluorescence polarization value of the probe in assay buffer was measured on an SLM-8100 fluorometer using the excitation and emission maximum values described above. Aliquots of expression vector lysate were added and fluorescence polarization was measured after each addition until no further change in polarization value was observed. Non-linear least squares regression analysis was used to calculate the dissociation constant of the probe from the polarization values obtained for lysate binding to the probe.
Step 2. Screeningfor Inhibitors of Probe Binding
This assay uses fluorescence polarization (FP) to quantitate the ability of test compounds to compete with tetramethyl rhodamine (TAMRA)-labeled dexamethasone for binding to a human glucocorticoid receptor (GR) complex prepared from an insect expression system. The assay buffer was: 10 mM TES, 50 mM KCl, 20 mM Na2MoO4.2H2O, 1.5 mM EDTA, 0.04% w/v CHAPS, 10% v/v glycerol, 1 mM dithiothreitol, pH 7.4. Test compounds were dissolved to 1 mM in neat DMSO and then further diluted to 10×assay concentration in assay buffer supplemented with 10% v/v DMSO. Test compounds were serially diluted at 10×assay concentrations in 10% DMSO-containing buffer in 96-well polypropylene plates. Binding reaction mixtures were prepared in 96-well black Dynex microtiter plates by sequential addition of the following assay components to each well: […] of 10×test compound solution, 85 μL of GR-containing baculovirus lysate diluted 1:170 in assay buffer, and 50 μL of 15 nM TAMRA-labeled dexamethasone. Positive controls were reaction mixtures containing no test compound; negative controls (blanks) were reaction mixtures containing 0.7 μM to 2 μM dexamethasone. The binding reactions were incubated for 1 hour at room temperature and then read for fluorescence polarization in the LJL Analyst set to 550 nm excitation and 580 nm emission, with the Rhodamine 561 dichroic mirror installed. IC50 values were determined by iterative non-linear curve fitting of the FP signal data to a 4-parameter logistic equation.

pIC50 | SMILES
≥ 7.00 | COc1ccc(F)cc1C(C)(C)CC(O)(Cc1ccc(C(F)(F)F)c(F)c1)C(F)(F)F (stereo not shown)
≥ 7.00 | COc1ccc(F)cc1C(C)(C)CC(O)(Cc1cc(Cl)cc(Cl)c1Cl)C(F)(F)F (stereo not shown)
≥ 7.00 | CC(C)(CC(O)(Cc1cc(C(F)(F)F)cc(Cl)c1F)C(F)(F)F)c1cc([N+](=O)[O-])cc2c1OCC2 (stereo not shown)
≥ 7.00 | COc1ccc(F)cc1C(C)(C)CC(O)(Cc1ccc(C=O)cc1)C(F)(F)F (stereo not shown)
≥ 7.00 | COc1ccc(F)cc1C(C)(C)CC(O)(Cc1cccc(C(F)(F)F)c1F)C(F)(F)F (stereo not shown) [1,1,1-Trifluoro-4-(5-fluoro-2-methoxyphenyl)-2-(2-fluoro-3-trifluoromethylbenzyl)-4-methylpentan-2-ol]
≥ 7.00 | COc1ccc(F)cc1C(C)(C)CC(O)(Cc1cc(C(F)(F)F)ccc1F)C(F)(F)F (stereo not shown) [1,1,1-Trifluoro-4-(5-fluoro-2-methoxyphenyl)-2-(2-fluoro-5-trifluoromethylbenzyl)-4-methylpentan-2-ol]
≥ 7.00 | COc1ccc(F)cc1C(C)(C)CC(O)(Cc1cc(F)cc(C(F)(F)F)c1)C(F)(F)F (stereo not shown) [1,1,1-Trifluoro-4-(5-fluoro-2-methoxyphenyl)-2-(3-fluoro-5-trifluoromethylbenzyl)-4-methylpentan-2-ol]
≥ 7.00 | COc1ccc(F)cc1C(C)(C)CC(O)(Cc1cc(F)cc(F)c1F)C(F)(F)F (stereo not shown) [1,1,1-Trifluoro-4-(5-fluoro-2-methoxyphenyl)-4-methyl-2-(2,3,5-trifluorobenzyl)pentan-2-ol]
≥ 7.00 | COc1ccc(F)cc1C(C)(C)CC(O)(Cc1c(C)ccc2ccccc12)C(F)(F)F (stereo not shown) [1,1,1-Trifluoro-4-(5-fluoro-2-methoxyphenyl)-4-methyl-2-(2-methylnaphthalen-1-ylmethyl)pentan-2-ol]
≥ 7.00 | COc1ccc(F)cc1C(C)(C)CC(O)(Cc1ccc(C)c2ccccc12)C(F)(F)F (stereo not shown) [1,1,1-Trifluoro-4-(5-fluoro-2-methoxyphenyl)-4-methyl-2-(4-methylnaphthalen-1-ylmethyl)pentan-2-ol]
≥ 7.00 | COc1ccc(F)cc1C(C)(C)CC(O)(C(O)c1cc(C)cc(C)c1)C(F)(F)F (stereo not shown) [1-(3,5-Dimethylphenyl)-4-(5-fluoro-2-methoxyphenyl)-4-methyl-2-trifluoromethylpentane-1,2-diol]
≥ 7.00 | COc1ccc(F)cc1C(C)(C)CC(O)(C(=O)Cc1cc(C)cc(C)c1)C(F)(F)F (stereo not shown) [1-(3,5-Dimethylphenyl)-5-(5-fluoro-2-methoxyphenyl)-3-hydroxy-5-methyl-3-trifluoromethylhexan-2-one]
≥ 7.00 | COc1ccc(F)cc1C(C)(C)CC(O)(Cc1cccc(Cl)c1Cl)C(F)(F)F (stereo not shown) [2-(2,3-Dichlorobenzyl)-1,1,1-trifluoro-4-(5-fluoro-2-methoxyphenyl)-4-methylpentan-2-ol]
≥ 7.00 | COc1ccc(F)cc1C(C)(C)CC(O)(Cc1ccc(Cl)cc1Cl)C(F)(F)F (stereo not shown) [2-(2,4-Dichlorobenzyl)-1,1,1-trifluoro-4-(5-fluoro-2-methoxyphenyl)-4-methylpentan-2-ol]
≥ 7.00 | COc1ccc(F)cc1C(C)(C)CC(O)(Cc1cc(Cl)ccc1Cl)C(F)(F)F (stereo not shown) [2-(2,5-Dichlorobenzyl)-1,1,1-trifluoro-4-(5-fluoro-2-methoxyphenyl)-4-methylpentan-2-ol]
≥ 7.00 | COc1ccc(F)cc1C(C)(C)CC(O)(Cc1ccccc1Br)C(F)(F)F (stereo not shown) [2-(2-Bromobenzyl)-1,1,1-trifluoro-4-(5-fluoro-2-methoxyphenyl)-4-methylpentan-2-ol]

pIC50 | SMILES
≥ 7.00 | COc1ccc(F)cc1C(C)(C)CC(O)(Cc1ccccc1Cl)C(F)(F)F (stereo not shown) [2-(2-Chlorobenzyl)-1,1,1-trifluoro-4-(5-fluoro-2-methoxyphenyl)-4-methylpentan-2-ol]
≥ 7.00 | Cc1ccc(F)cc1C(C)(C)CC(O)(Cc1ccc(Cl)c(Cl)c1)C(F)(F)F (stereo not shown) [2-(3,4-Dichlorobenzyl)-1,1,1-trifluoro-4-(5-fluoro-2-methylphenyl)-4-methylpentan-2-ol]
≥ 7.00 | CC(C)(CC(O)(Cc1ccc(Cl)c(Cl)c1)C(F)(F)F)c1ccccc1 (stereo not shown) [2-(3,4-Dichlorobenzyl)-1,1,1-trifluoro-4-methyl-4-phenylpentan-2-ol]
≥ 7.00 | COc1ccc(F)cc1C(C)(C)CC(O)(Cc1ccc(C)c(C)c1)C(F)(F)F (stereo not shown) [2-(3,4-Dimethylbenzyl)-1,1,1-trifluoro-4-(5-fluoro-2-methoxyphenyl)-4-methylpentan-2-ol]
≥ 7.00 | COc1ccc(F)cc1C(C)(C)CC(O)(Cc1cc(C(F)(F)F)cc(C(F)(F)F)c1)C(F)(F)F (stereo not shown) [2-(3,5-Bis-trifluoromethylbenzyl)-1,1,1-trifluoro-4-(5-fluoro-2-methoxyphenyl)-4-methylpentan-2-ol]
≥ 7.00 | COc1ccc(F)cc1C(C)(C)CC(O)(Cc1cc(Cl)cc(Cl)c1)C(F)(F)F (stereo not shown) [2-(3,5-Dichlorobenzyl)-1,1,1-trifluoro-4-(5-fluoro-2-methoxyphenyl)-4-methylpentan-2-ol]
≥ 7.00 | CC(C)(CC(O)(Cc1cc(Cl)cc(Cl)c1)C(F)(F)F)c1ccccc1 (stereo not shown) [2-(3,5-Dichlorobenzyl)-1,1,1-trifluoro-4-methyl-4-phenylpentan-2-ol]
≥ 7.00 | COc1ccc(F)cc1C(C)(C)CC(O)(Cc1cc(F)cc(F)c1)C(F)(F)F (stereo not shown) [2-(3,5-Difluorobenzyl)-1,1,1-trifluoro-4-(5-fluoro-2-methoxyphenyl)-4-methylpentan-2-ol]
≥ 7.00 | COc1ccccc1C(C)(C)CC(O)(Cc1cc(C)cc(C)c1)C(F)(F)F (stereo not shown) [2-(3,5-Dimethylbenzyl)-1,1,1-tri fluoro-4-(2-methoxyphenyl)-4-methylpentan-2-ol]
≥ 7.00 | CC(C)(CC(O)(Cc1ccc(-c2ccccc2)cc1)C(F)(F)F)c1cc(F)ccc1O (stereo not shown) [2-(3-Biphenyl-4-ylmethyl-4,4,4-trifluoro-3-hydroxy-1,1-dimethylbutyl)-4-fluorophenol]
≥ 7.00 | COc1ccc(F)cc1C(C)(C)CC(O)(Cc1cccc(Br)c1)C(F)(F)F (stereo not shown) [2-(3-Bromobenzyl)-1,1,1-trifluoro-4-(5-fluoro-2-methoxyphenyl)-4-methylpentan-2-ol]
≥ 7.00 | CC(C)(CC(O)(Cc1cc(C(F)(F)F)cc(Cl)c1F)C(F)(F)F)c1ccc(F)cc1 (stereo not shown) [2-(3-Chloro-2-fluoro-5-trifluoromethylbenzyl)-1,1,1-trifluoro-4-(4-fluorophenyl)-4-methylpentan-2-ol]
≥ 7.00 | Cc1ccc(F)cc1C(C)(C)CC(O)(Cc1cc(C(F)(F)F)cc(Cl)c1F)C(F)(F)F (stereo not shown) [2-(3-Chloro-2-fluoro-5-trifluoromethylbenzyl)-1,1,1-trifluoro-4-(5-fluoro-2-methylphenyl)-4-methylpentan-2-ol]
≥ 7.00 | CC(C)(CC(O)(Cc1cc(C(F)(F)F)cc(Cl)c1F)C(F)(F)F)c1ccccc1 (stereo not shown) [2-(3-Chloro-2-fluoro-5-trifluoromethylbenzyl)-1,1,1-trifluoro-4-methyl-4-phenylpentan-2-ol]
≥ 7.00 | CC(C)(CC(O)(Cc1cc(C(F)(F)F)cc(Cl)c1F)C(F)(F)F)c1cccc2c1OCC2 (stereo not shown) [2-(3-Chloro-2-fluoro-5-trifluoromethylbenzyl)-4-(2,3-dihydrobenzofuran-7-yl)-1,1,1-trifluoro-4-methylpentan-2-ol]
